“Also recorded” adds a separate entry of the source.
Tests used:
Type in all cases: cell-based, human
p51 promoter [1] = experiment: Luciferase reporter assay in HCT116 cells transiently transfected with pGL2-neo/p51 promoter; conditions: HCT116, 1 μg/ml trichostatin A vs 0, 24 hours
Description: Subsequently, the following experiment was carried out in order to perform functional analysis of the p51 promoter region. 200,000 cells of HCT116 were plated on a culture dish with a diameter of 60 mm. The medium used was McCOY's 5A/10% FBS. These were cultured in the presence of 5% carbon dioxide at 37° C. for 48 hours. The medium was replaced with McCOY's 5A containing no serum. Subsequently, 2 μg each of pGL2-neo/p51 promoter or pGL2-neo vector was introduced. The plasmid was introduced using the lipofectamine plus reagent (manufactured by GIBCO BRL). Thus, 125 μl of McCOY's 5A and 8 μl of the plus solution were added to the plasmid solution, stirred well, and then incubated at room temperature for 15 minutes. To this solution, 125 μl of McCOY's 5A and 12 μl of lipofectamine solution were added, stirred well, and then incubated at room temperature for further 15 minutes. This was added to the HCT116 cells incubated by the above procedure, gently mixed, and cultured in the presence of 5% carbon dioxide at 37° C. for three hours to introduce plasmid. Subsequently, the medium was replaced with McCOY's 5A/10% FBS, and cultured in the presence of 5% carbon dioxide at 37° C. for 21 hours. […] For these cells, the luciferase activity was determined to investigate promoter activity. […] The luciferase activity was determined according to the following method. […]

p51A mRNA = experiment: Northern blotting of the amount of p51 expressed in HCT116 cells after stimulation with drugs; conditions: 24 hours treatment, 1 μg/ml trichostatin A, Northern blotting of 20 μg RNA
Description: A variety of stimulations including stimulation with a drug were applied to a cell line HCT116 derived from colon cancer to investigate changes in the amount expressed of p51 by Northern blotting. 200,000 cells of HCT116 cells were plated on a culture dish with a diameter of 60 mm, and cultured in the presence of 5% carbon dioxide at 37° C. for two days. The medium used was McCOY's 5A (manufactured by Nisseiken) to which fetal bovine serum (FBS) was added to a final concentration of 10% (referred to hereinafter as McCOY's 5A/10% FBS). Then it was treated with A23187 (0.1 μM, 1 μM), cisplatin (1 μg/ml, 10 μg/ml), CPTcAMP (0.1 μM, 1 μM), etoposide (10 μg/ml, 0.1 μg/ml), genistein (1 μM, 10 μM), ML-236B (1 μg/ml, 10 μg/ml), milurinone (1 μM, 10 μM), mitomycin C (5 μg/ml, 50 μg/ml), NKH477 (0.1 μM, 1 μM), okadaic acid (1 nM, 10 nM), radicicol (0.1 μg/ml, 1 μg/ml), staurosporin (1 nM, 10 nM), taxol (1 μg/ml, 10 μg/ml), trichostatin A (0.1 μg/ml, 1 μg/ml), radiation (50 J/m^2, 100 J/m^2), vitamin D3 (10 nM, 100 nM), vincristine (1 μg/ml, 10 μg/ml), and wortmannin (0.1 μM, […]), and further cultured in the presence of 5% carbon dioxide at 37° C. for 24 hours. Then, from the cells, RNA was prepared using ISOGEN (manufactured by Nippongene). […] Then, the membrane was analyzed on autoradiography.

p51 promoter [2] = experiment: Luciferase assay in geneticin-selected HCT116/p51 promoter clones
Description: The medium in the cell culture dish was removed, and 5 ml of the cell lysis reagent (25 mM Tris-HCl, pH 7.8, 2 mM dithiothreitol, 2 mM CDTA, 0.2% triton X-100, 10% glycerol) was added and incubated at room temperature for 15 minutes.
As the plasmid-introduced cells, the HCT116 cell line was used. 500,000 cells of HCT116 cell were plated on a cuture dish with a diameter of 60 mm. The medium used was McCOY's 5A/10% FBS. These were cultured in the presence of 5% carbon dioxide at 37° C. for 48 hours. The medium was replaced with McCOY's 5A containing no serum. As the plasmid for introduction, two μg of pGL2-neo/p51 promoter was dissolved in 4 μl of the TE solution to prepare a plasmid solution. The plasmid was introduced using the lipofectamine plus reagent (manufactured by GIBCO BRL). Thus, 125 μl of McCOY's 5A and 8 μl of the plus solution were added to the plasmid solution, stirred well, and then incubated at room temperature for 15 minutes. To this solution, 125 μl of McCOY's 5A and 12 μl of the lipofectamine solution were added, stirred well, and then incubated at room temperature for further 15 minutes. This was added to the HCT116 cells cultured by the above procedure, gently mixed, and incubated in the presence of 5% carbon dioxide at 37° C. for three hours to permit the introduction of the plasmid. Subsequently, the medium was replaced with McCOY's 5A/10% FBS, and incubated in the presence of 5% carbon dioxide at 37° C. for 21 hours. Then, the cells were recovered from the culture dish with PBS containing 0.25% trypsin and 0.02% EDTA, and 1% amount thereof was plated onto a culture dish with a diameter of 100 mm. It was further cultured in McCOY's 5A/10% FBS medium in the presence of 5% carbon dioxide at 37° C. for further 72 hours, and then 1.2 mg/ml of geneticin (manufactured by Nacalai Tesque) was added as a selection drug. By replacing the medium every three days, and further culturing in the above condition for further two weeks, the cells into whose genes the plasmid gene was introduced, and became geneticin-resistant, were selected. Subsequently, 50 clones were isolated from the cell group that formed colonies on the dish, and were plated on a 24-well culture dish to continue being cultured.
Thus, the reactivity of these clones to trichostatin A was investigated by the following procedure. 500,000 cells each of the cloned cells were plated on a cuture dish with a diameter of 60 mm. The medium used was McCOY's 5A/10% FBS. These were cultured in the presence of 5% carbon dioxide at 37° C. for 48 hours. Then, trichostatin A was added to the two groups of cells to a final concentration of 0 or 0.1 μg/ml, and cultured in the presence of 5% carbon dioxide at 37° C. for 24 hours. For these cells, their luciferase activity was determined to examine the effect on the p51 promoter activity. The luciferase activity was determined according to the above method.

Question: What does the source list for `CC(/C=C/C(=O)NO)=C\[C@@H](C)C(=O)c1ccc(N(C)C)cc1` [trichostatin A]?
Answer: luciferase activity (fluorescence/chemiluminescence intensity) of pGL2-neo/p51 promoter-introduced cells (p51 promoter [1]): further remarkably enhanced; also recorded: markedly enhanced; amount of p51A mRNA (specific band that reacts with p51A-derived cDNA) (p51A mRNA): transactivates p51; also recorded: specific band that reacts with p51A-derived cDNA was only observed; measured values of luciferase activity, clone #5 (p51 promoter [2]; HCT116/p51 promoter clone #5, with TsA 0.1 μg/ml, 24 hours (without TsA 3.9)): 29.5; measured values of luciferase activity, clone #9 (p51 promoter [2]; HCT116/p51 promoter clone #9, with TsA 0.1 μg/ml, 24 hours (without TsA 1.0)): 33.3; measured values of luciferase activity, clone #17 (p51 promoter [2]; HCT116/p51 promoter clone #17, with TsA 0.1 μg/ml, 24 hours (without TsA 17.0)): 44.1; measured values of luciferase activity, clone #18 (p51 promoter [2]; HCT116/p51 promoter clone #18, with TsA 0.1 μg/ml, 24 hours (without TsA 6.8)): 14.0; luciferase activity of cloned cells (p51 promoter [2]; several clones, 0.1 μg/ml trichostatin A, 24 hours): significantly enhanced luciferase activity
